Experimental data taken from US9132138B2, “Method for the treatment of multiple sclerosis” (CASI Pharmaceuticals, Inc., priority 2012, dated 2015).

Target: T1, GPER1 (Mus musculus, UniProt Q8BMP4)
T1 construct: Purified C57/BL6 CD4^+ T cells were preincubated with the GPER1 antagonist G15; endogenous in cells; host or cells: purified primary CD4+ T cells from C57/BL6 mice
T1 sequence (Q8BMP4 1-375): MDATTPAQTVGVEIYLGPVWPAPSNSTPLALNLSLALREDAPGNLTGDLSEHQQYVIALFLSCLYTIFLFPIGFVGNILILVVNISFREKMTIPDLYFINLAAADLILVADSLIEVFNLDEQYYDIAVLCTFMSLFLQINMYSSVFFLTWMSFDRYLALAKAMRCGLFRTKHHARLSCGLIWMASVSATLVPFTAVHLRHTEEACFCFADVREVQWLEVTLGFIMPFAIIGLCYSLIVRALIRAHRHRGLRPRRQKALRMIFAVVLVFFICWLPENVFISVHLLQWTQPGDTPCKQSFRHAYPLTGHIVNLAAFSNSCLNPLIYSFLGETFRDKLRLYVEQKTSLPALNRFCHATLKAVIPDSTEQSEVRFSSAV
Assay: GPER1 dependence: CD25/CD69 on CD4+ T cells with G15 or G1
Type: cell-based, C57/BL6 mice
Conditions: for cell viability: at 6 hours
Method: FIGS. 6A and 6B show purified CD4^+ T cells that were pretreated with 2-50 μM 2ME2 and/or the GPER1 antagonist G15, and subsequently stimulated with anti-CD3/28 for 6 hours. Activation of CD4^+ T cells was assessed by CD25 and CD69 upregulation, measured by flow cytometry. US, unstimulated. Data is shown as mean±SD for triplicate determinations, and is representative of two separate experiments.
Purified C57/BL6 CD4^+ T cells were preincubated with the GPER1 antagonist G15 (100 nM, Tocris) and 2ME2 (0-50 μM), or the GPER1 agonist G1 (1-100 nM, Tocris) for 30 minutes, and activated with plate bound anti-CD3 plus soluble anti-CD28. 6 hours later, cells were harvested, stained with anti-CD4 and anti-CD25. CD25 expression was monitored on a HTS FACSCanto II (BD) and analyzed with FloJo (Treestar Inc).

[1] = G15 100 nM with 2ME2, anti-CD3/28, 6 hours

| SMILES | CD25 expression on activated T cells (G1 1-100 nM, 6 hours) | CD69 expression on activated T cells (G1 1-100 nM, 6 hours) | cell viability | reversal of the inhibitory effect of 2ME2 on CD25 expression [1] | reversal of the inhibitory effect of 2ME2 on CD69 expression [1] |
| --- | --- | --- | --- | --- | --- |
| CC(=O)c1ccc2c(c1)C1C=CCC1C(c1cc3c(cc1Br)OCO3)N2 (stereo not drawn) [G1] | no effect | no effect | Neither 2ME2, G1 nor G15 affected cell viability | – | – |
| Brc1cc2c(cc1[C@@H]1Nc3ccccc3[C@@H]3C=CC[C@@H]31)OCO2 [G15] | – | – | Neither 2ME2, G1 nor G15 affected cell viability | failed to reverse | failed to reverse |
